row,SMILES,melting point
1,O=Cc1cnn(-c2ccc(C(F)(F)F)cc2[N+](=O)[O-])c1Br,195 to 198 °C
2,CC(=O)N1c2cc(C)c(S(=O)(=O)C[N+](=O)[O-])c(C)c2CC1C (centres undefined),175 °C
3,O=C1Cc2c(cccc2OCC2CO2)N1 (centres undefined),164 to 166 °C
4,O=C1CN2Cc3c(ccc(OCC(=O)N(CCO)C4CCCCC4)c3Cl)N=C2N1,237 to 239 °C
5,COC(=O)c1cccc([N+](=O)[O-])c1N,92 to 93 °C
6,O=C1OCCC23C(=CC=CC12)C1=C(C=C3c2ccc3c(c2)OCO3)OCO1 (centres undefined),263 to 266 °C
7,COc1ncc(Cl)cc1Br,45 to 47.5 °C
8,O=S(=O)(Nc1cc(Cl)ccc1Cl)c1cc(S(=O)(=O)Nc2cc(Cl)ccc2Cl)c2cc(O)ccc2c1,214 to 216 °C
9,COc1ccc(C2(CCN3CCC(O)(c4nc5ccccc5n4Cc4ccc(F)cc4)CC3)CCN(C(=O)c3cc(OC)c(OC)c(OC)c3)C2)cc1OC (centres undefined),110 to 120 °C
10,N#Cc1cnn2c(C(F)(F)F)cc(-c3cccc(Cl)c3)nc12,204 °C
11,Nc1ncnc2c1c(-c1ccc(Oc3ccccc3)cc1)cn2C1CC2CC(O)CC2C1 (centres undefined),193 to 194 °C
12,COc1ccc([C@]2(C)CNC(=O)O2)cc1OCC(C)C,93.7 °C
13,O=C(c1cccs1)c1cnn2c(-c3cccc(-c4ccn(CC5CCC5)n4)c3)ccnc12,60 °C
14,CC(C)CCS(=O)(=O)NC(=O)/C=C/c1cc(OC(C)C)nn1Cc1ccc(C(F)(F)F)cc1Cl,139 to 140 °C
15,CC(=O)OC1CCC2(C)C(CCC3=C4C(=O)CC(C(C)CCCC(C)(C)O)C4(C)CCC32)C1 (centres undefined),151 to 152 °C
16,Clc1ccc(C2(CBr)OCC(c3ccccc3)O2)cc1 (centres undefined),60 °C
17,O=C(COc1ccc(Cl)c(Cl)c1)Nc1cscc1C(=O)O,258 to 264 °C
18,Cn1c(C(F)(F)F)cc(=O)n(-c2ccc3snc(C(=O)NS(C)(=O)=O)c3c2)c1=O,241 to 243 °C
19,COC(=O)C1=C(C(F)F)NC(C)=C(C(=O)OC(C)C)C1c1cccc(Cl)c1Cl (centres undefined),156 to 157 °C
20,COc1cc2c(cc1OC)C1(CCC2=O)CCC(=O)N(C)C1=O (centres undefined),168 to 170 °C
21,O=C(Nc1cc(C(F)(F)F)ccc1N1CCCCC1)c1ccncc1,96 to 98 °C
22,COc1ccc2c(ccn2-c2ccc(Br)cc2)c1,90 to 91 °C

row,SMILES,melting point
1,CC(O)(CC(=O)O)c1ccc(-c2ccc(Cl)c(Cl)c2)cc1 (centres undefined),124 to 126 °C
2,O=[N+]([O-])c1cc([N+](=O)[O-])c2ccccc2c1Nc1ccc(OC(F)(F)F)c(Cl)c1,140 °C
3,CCCC(Cc1ccc(OCCN2CCCCCC2)cc1)(C(=O)NO)S(=O)(=O)c1ccc(OC)cc1 (centres undefined),85 °C
4,O=C1CCN(Cc2ccc(O)cc2)CC1C1c2ccccc2C=Cc2ccccc21 (centres undefined),156 to 157 °C
5,O=C(NN1CCNC1=O)c1cc(=O)c(O)c[nH]1,270 to 275 °C
6,CC(=O)Nc1cc(N)c(F)cc1Cl,176 to 178 °C
7,CC(C)(C)OC(=O)CN(CC(=O)OC(C)(C)C)S(=O)(=O)c1ccc(N2CCC(NC[C@H](O)c3ccc(O)c(NS(C)(=O)=O)c3)CC2)cc1,164 to 166 °C
8,N#Cc1cncc(I)c1O,> 245 °C
9,NC(=O)C12CCCC(C1)C1CCC2C1 (centres undefined),173 to 174 °C
10,COc1cc(OC)cc(-c2ncoc2-c2ccc3c(c2)NCCO3)c1,175 to 178 °C
11,COc1ccc(-n2nnnc2C(F)(F)F)c(OC)c1CO,74 to 79 °C
12,C[C@@H]1O[C@](C#Cc2ccoc2)(C(F)(F)F)c2cc(Cl)ccc2NC1=O (relative stereo),214 to 215 °C
13,CCOc1ccc(-c2ccc3c(c2)C=C(C(=O)Nc2ccc(CN(C)C4CCOCC4)cc2)CCN3C=O)cc1,211 to 215 °C
14,CC(C)CC(C)(C#N)N=NC(C)(C#N)CC(C)C (centres undefined),52 to 56 °C
15,N#Cc1cnc2sc(-c3ccccc3C=O)cc2c1Nc1cccc2[nH]ccc12,137 to 139 °C
16,ClCCOc1ccc(C2=C(c3ccccc3)CCCc3cc(OC4CCCCO4)ccc32)cc1 (centres undefined),153 to 155 °C
17,O=C(O)/C=C/c1ccc(C(=O)c2c(-c3ccc(O)cc3)sc3cc(O)ccc23)cc1,155 to 160 °C
18,COc1ccc2cc(CCl)ccc2c1,63 to 65 °C
19,Cc1ccc(COc2cccc(C(=O)Nc3ccc(CN4CCCCC4)cc3)c2)cc1,153 to 155 °C
20,Cc1cccc2nc3c(cc12)sc1cccc(Cl)c13,143 to 146 °C
21,NC(=O)c1ccc(OC2CCN(c3ccncc3)C2)cc1 (centres undefined),298 to 300 °C
22,CCCC(=O)Oc1ccc(-c2nc(-c3ccc(N(C)C)cc3)c(C)[nH]2)cc1OC,62 to 64 °C

row,SMILES,melting point
1,Cc1c(-c2c[nH]cc2C#N)cccc1C(F)(F)F,99 to 100 °C
2,COc1cccc(OC)c1-c1cc(C(=O)NC2(C(=O)O)C3CC4CC(C3)CC2C4)nn1-c1ccc(C(=O)N(C)CCC(=O)O)cc1C(C)C (centres undefined),166 to 168 °C
3,O=C(c1ccc(Cl)cc1)C1(n2cncn2)CC1,78 °C
4,O=S1CCN(CC2CN=C(c3cc4cccc(NS(=O)(=O)c5ccccn5)c4[nH]3)S2)CC1 (centres undefined),270 °C
5,Cn1nc(-c2cc(F)c([N+](=O)[O-])cc2F)cc1C(F)(F)F,80 to 81 °C
6,CC(C)(C)c1ccc(CC(=O)CCC2CCCCC2)cc1NC(=O)CC1c2ccccc2Oc2ccccc21,134 to 135 °C
7,CC1(C)OC(=O)C(=CC2CC2)C(=O)O1,91 to 92 °C
8,COc1ccc(NC(=O)c2ccc(F)c(F)c2)cc1NCc1cccc(O)c1,174 to 176 °C
9,CN(C(=O)C(Cl)(Cl)Cl)c1nc(C(Cl)(Cl)Cl)ns1,223 °C
10,Cn1nc(-c2ccc(F)cc2)c(-c2ccncc2)c1N,155 to 158 °C
11,CN(C(=O)c1ccc2nonc2c1)C1CCCCC1O (centres undefined),148 to 149 °C
12,CNc1c([N+](=O)[O-])cc(C)cc1[N+](=O)[O-],132 °C
13,CNC(=O)c1cccc(-c2ccc3nnn(Cc4ccc5ncccc5c4)c3n2)c1,215 to 217 °C
14,COC(=O)[C@H](CSC(=O)[C@@H](C)c1ccc(CC(C)C)cc1)NC(C)=O,75 to 77 °C
15,CC(=O)Nc1ccc(S(=O)CC(=O)C23CC4CC(CC(C4)C2)C3)cc1 (centres undefined),174 to 176 °C
16,Cc1ccc(-c2nc3cc([N+](=O)[O-])ccc3o2)o1,182 to 184 °C
17,Oc1ccc(OCCCCCCCCOc2ccc(O)cc2)cc1,151 to 154 °C
18,O=C(O)Cn1cc(Cc2nc3cc(C(F)(F)F)ccc3s2)c2ccc(Br)cc21,265 to 267 °C
19,COCc1c(C(=O)OC(C)C)ncc2[nH]c3cccc(Oc4ccc(Cl)cc4)c3c12,119 to 120 °C
20,O=C(Nc1ccc(C#CCCN2CC=C(c3ccccc3)CC2)nc1)c1cccs1,187 to 188 °C
21,N#Cc1ccc(C(F)(F)F)cc1N=NN(C(=O)Nc1ccccc1)c1cc(C(F)(F)F)ccc1C#N,157 to 158 °C

# The remaining lines, values ahead:
row,melting point,SMILES
1,104 to 106 °C,OC(CN1CCCCC1)c1cc(-c2ccccc2)on1 (centres undefined)
2,121 °C,O=C(c1ncc[nH]1)C1CCN(Cc2ccccc2)CC1
3,100 °C,COc1ccccc1N1CCN(CCCCCC(=O)N2Cc3ccccc3C2)CC1
4,95 to 97 °C,CCOC(=O)C(=O)Nc1cc(N2CCOCC2)ccc1OC
5,84 to 86 °C,CC(C)(C)OC(=O)NC1CCN(C(=O)OCCC2(C(=O)NCC(F)(F)F)c3ccccc3-c3ccccc32)CC1
6,113 to 120 °C,CC1(C)CN(c2ccncc2)c2ccc(S(=O)(=O)c3ccccc3)cc2O1
7,178 to 182 °C,CC1(C)C=Cc2cc(-c3nnnn3CCN3C(=O)c4ccccc4C3=O)ccc2O1
8,149 to 150 °C,CCCCCCCC(=O)OC(=C1C(=O)N(C(N)=O)c2cc(Cl)c(F)cc21)c1cccs1
9,135 to 137 °C,CCCNC(=O)C1(C/C=C\CSc2nc3ccc(OCC)cc3s2)c2ccccc2-c2ccccc21
10,184 to 185 °C,CCNC(=O)Nc1nc2ccc(Cc3ccccn3)cc2s1
11,138 to 140 °C,O=C(O)Cc1cccc2c1ccn2Cc1ccccc1
12,145 to 146 °C,O=[N+]([O-])CS(=O)(=O)c1cccc2c1sc1ccccc12
13,83.5 to 84.5 °C,COc1ccc(N=C(CCc2ccccc2Cl)c2ccccc2)cc1
14,142 to 144 °C,O=C(O)CCCN1c2ccccc2Sc2ccc(Cl)cc21
15,107 to 108 °C,CCOC(=O)c1csc(-c2ccc3cc4c(cc3c2)C(C)(C)CCC4(C)C)c1
16,96 to 102 °C,Clc1ccc(OCc2noc(-c3ccccc3)n2)cc1
17,184 to 186 °C,COc1ccc(/C=C/C(=O)Nc2ccccc2C(N)=O)cc1OC

row,melting point,SMILES
1,> 275 °C,CCOC(=O)Nc1nc(C)c(-c2nc3ccccc3c(=O)n2-c2ccc(C(C)=O)cc2)s1
2,135 to 141 °C,COc1ccc2[nH]c3c(c2c1)CC(OC(=O)c1ccccc1)CC3 (centres undefined)
3,88 to 90 °C,COC(=O)[C@@H](NC(=O)Nc1n[nH]c(=S)s1)[C@@H](C)OCc1ccccc1
4,157 to 158 °C,CN(C)CCN1CCC(O)(c2ccccc2)C(C(O)c2ccccc2)C1 (centres undefined)
5,188 to 189 °C,Cc1c(NC(=O)c2ccccc2[N+](=O)[O-])cccc1C(F)(F)F
6,245 °C,COc1cc(N2C(=O)c3ccccc3C2=O)c(F)cc1C#N
7,228 to 231 °C,CC1=C(C)C(O)N(c2nc3ccc(OC(F)(F)F)cc3s2)C1=O (centres undefined)
8,70 to 80 °C,Cc1noc(NS(=O)(=O)c2ccccc2-c2ccccc2CO)c1C
9,78 to 79 °C,CCCCc1nnc(SCc2ccc(OC)cc2)n1Cc1ccc(OC(C(=O)O)c2ccccc2)cc1 (centres undefined)
10,166 to 168 °C,CC(C)C(C(=O)O)n1sc2ccccc2c1=O (centres undefined)
11,111 to 112 °C,CCOC(=O)c1cn(C)c2sc(CCl)cc2c1=O
12,58 to 60 °C,Cc1cccc(NC(=O)CS)c1
13,52 to 53 °C,CCCCCc1oc(-c2ccc(Cl)cc2)nc1CC(=O)OCC
14,178 to 181 °C,CCOC(CC)=C1SC(=S)N(c2ccccc2)C1=O
15,73 to 76 °C,O=C(CC1CCc2ccccc2C1=O)c1ccccc1 (centres undefined)
16,200 °C,O=C(O)c1ccccc1-c1n[nH]c(-c2cccc(C(F)(F)F)c2)n1
17,31 to 32 °C,O=C(c1ccccc1)c1ccc(OCCOCCO)cc1
